# Assays:
# [1] = Electrochemical analysis (differential pulse voltammetry) in DMSO; type: physicochemical; settings: 0.1M [N(nBu)4][PF6], 0.1 mM analyte, vs SCE
# Method: [Cl] (Guth et al., 2011; Gómez et al., 2003).
# 1,3-Dimesitylnapthoquinimidazolium chloride (Sanderson et al., 2006; Tennyson et al., 2010), (1,3-dimesityl-4,5-naphthoquino-imidazol-2-ylidene)-silver(I) chloride (Sanderson et al., 2006; Tennyson et al., 2010), (C4H2S)AuCl (Hashmi, et al., 2010) were prepared according to the literature procedures. All other reagents were purchased from commercial sources and used as received, including: [((CH3)3Si)2N]Na (NaHMDS) and silver(I) oxide. CD2Cl2 (99.9%) was purchased from Acros Laboratories in glass ampules and used as received. Solvents were either dried with a solvent purification system from the Inert Innovative Technology, Inc. (dichloromethane, diethyl ether, hexanes, tetrahydrofuran and toluene) or freshly distilled over 3 Å molecular sieves and degassed using three consecutive freeze-pump-thaw cycles prior to use. UV-vis spectra were obtained at ambient temperature with a Hewlett-Packard 8452A diode array spectrophotometer with molar absorptivities reported in M^−1 cm^−1. ^1H and ^13C NMR spectra were recorded on Bruker 300 MHz spectrometer. Spectra were referenced to the residual solvent as an internal standard, for ^1H NMR: CD2Cl2, 5.32 ppm and ^13C NMR: CD2Cl2, 53.84 ppm. High-resolution mass spectra (HRMS) were obtained with an Agilent Technologies 6530 Accurate Mass Q-TOF LC/MS (ESI) and are reported as m/z (relative intensity). Electroanalytical measurements were performed on a CHI620E electrochemical workstation using a silver wire quasi-reference electrode, a platinum disk working electrode and a Pt wire auxiliary electrode in a three-electrode cell under an atmosphere of nitrogen. […] All potentials listed herein were determined by differential pulse voltammetry and referenced to a saturated calomel electrode (SCE) by shifting ferrocene^0/+ to 0.435 V (DMSO) (Aranzaes et al., 2006). Spectroelectrochemistry measurements were obtained at ambient temperature with a custom designed three-electrode cell using Hewlett-Packard 8452A diode array spectrophotometer and CHI620E. Elemental analyses were performed by Midwest Microlab, LLC in Indianapolis, Ind. […] Trypsin (Hyclone SH30236.01) and Dulbecco's Phosphate Buffer Saline (Sigma R5886) were used for general cell maintenance and harvesting. Cell lines were obtained from the ATCC (A549 and PC-3) and Prof. Zahid Siddik at MD Anderson (A2780 and A2780CP). Thiazolyl blue tetrazolium bromide (Alfa Aesar L11939) was used for cell proliferation assays. Cell culture plastic ware consisted of generic T-75 flasks, 80.5 mm diameter culture dishes, and treated 96-well plates.
# [2] = test system: A2780 ovarian (wt-p53, platinum sensitive); test: Cell proliferation (MTT) assay in A2780 ovarian cells; type: cell-based; settings: Table 3; error is standard error of the mean
# Method: Further anti-proliferation studies were carried out with complex 1 and its naphthoquinone component 4[H][Cl] using the following cell lines: A2780 ovarian (a wt-p53 cell line sensitive to platinum treatment), 2780CP ovarian (isogenic to A2780 but expressing multi-drug resistance (MDR)), and PC-3 prostate (p53 null) (Table 3).
# Cells were harvested and seeded into 96-well culture plates (Costar 07-200-90) in 100 μL of culture media. They were allowed to incubate overnight at 37° C. in the presence of 5% CO2. A549 was seeded at a density of 1000 cells/well, A2780 at 2500 cells/well, A2780CP at 3000 cells/well, and PC-3 at 2000 cells/well. The next day, appropriate serial dilutions of drug stocks in culture media were made. To each well of a 96 well plate was added 100 μL of the appropriate solution. After a total of three days, a […] aliquot of 3 mg/mL tetrazolium dye, 344,5-dimethylthiazol-2-yl)-2,5-diphenyltetrazolium bromide (Alfa Aesar L11939) was added to each well, followed by a 4 hr incubation period at 37° C. The medium was then removed, the resulting formazan was dissolved in […] DMSO and the respective absorbances were measured at 560-650 nm using a microplate reader (Molecular Devices, Sunnyvale, Calif.). Absorbance values were corrected for background and then normalized to wells containing untreated cells to allow for plate-to-plate comparisons. […]
# [3] = test system: thioredoxin reductase (TrxR) in A549 cells; test: Lipoate reduction assay of thioredoxin reductase activity in live cells; type: cell-based, human
# Method: To assess whether any or all of the present gold complexes could serve as TrxR inhibitors, standard tests involving the reduction of the oxidized form of the cell-permeable cofactor lipoate to its corresponding reduced form, dihydrolipoate, were carried out. […] [Cl] and 5 (cocktail), auranofin, and doxorubicin for 6 h. Post treatment, the live cells were monitored colorimetrically over 180 min for their ability to reduce lipoate (FIG. 5A).
# Cells were harvested and seeded at a density of 10,000 cells/well A549 in 96-well culture plates. They were then incubated overnight at 37° C. and 5% CO2. The next day, appropriate serial dilutions of drug stock in culture media were performed, and 100 μL of the appropriate solution were added to each well. Cells were returned to the incubator for 6 h. Afterwards, the liquid was then removed from each well by vacuum aspiration and replaced by 100 μL of 5 mM lipoate (Tokyo Chemical Industry Co., Ltd. L0207) and 1 mM DTNB (Acros Organics 117540050) in HBSS (Life tech 14025-092). The absorbance of each well at […] was recorded immediately and once every 20 min for three h on a microplate reader (Molecular Devices, Sunnyvale, Calif.). Plates were covered with aluminum foil between readings.
# A549 cancer cells = settings: A549, 1.25 μM
# Method: All cells were selectively stained for visualization of ROS accentuation (green, CM-H2DCFDA), mitochondria (red, Mitotracker Red), and nuclei (blue, Hoechst).
# Cells were then incubated with 1.25 μM complex at 37° C. 4 h. Post incubation, the media was removed and cells were washed (2×) with PBS. Cells were then incubated with 1 μM CM-H2DCFDA (Lifetech C6827) in PBS at 37° C. for 15 min. The dye-PBS solution was removed and cells were washed with PBS (2×). To the cells was added a PBS solution containing 1 ug/mL Hoechst 33342 (Lifetech H1399) and 50 nM Mitotracker Red FM (Lifetech M22425) for 30 min at 37° C. After incubation, the dye-PBS solution was removed and cells were washed with PBS (2×). Cells were then imaged fluorescently on a Leica SP5 X White light laser confocal microscope. Images were taken with a 63×, NA 1.4 objective.
# zebrafish embryos/larvae = test system: zebrafish embryos/larvae
# Method: First, zebrafish embryos were divided into 7 groups at an average of 65 embryos per group. […] Briefly, live human lung cancer cells (A549) were labeled with CM-DiI (red) and only live cells were transplanted via injection into the perivitelline space of 30 zebrafish embryos 24 hours post fertilization (hpf) (Sittaramane et al., 2015; Veinotte et al., 2014; Xie et al., 2015). Tumor inoculated zebrafish embryos were allowed to grow for one day till 48 hpf. This allows for establishment of the cancer cells in the host zebrafish embryos.
# The embryonic development of zebrafish embryos was monitored at 48 hpf and 72 hpf to record the number of dead embryos.
smiles,measurement,setting,value
"Cc1cc(C)c(-n2c3c([n+](-c4c(C)cc(C)cc4C)[c]2[Au-][c]2n(-c4c(C)cc(C)cc4C)c4c([n+]2-c2c(C)cc(C)cc2C)C(=O)c2ccccc2C4=O)C(=O)c2ccccc2C3=O)c(C)c1.[Cl][Ag-][Cl] [Compound 1, [Bis(1,3-dimesityl-4,5-naphthoquino-imidazol-2-ylidene)-gold(I)] [Silver(I)dichloride]]","E1/2 (V) DPV, first reduction, formation of semiquinone radical",[1],−0.42 V
same,"E1/2^b (V) DPV, second reduction, formation of quinone dianion",[1],−1.31 V
same,IC50,[2],26 ± 7 nM
same,"TrxR activity by lipoate reduction, time and dose dependence","[3]; A549, in words",time (FIG. 12A) and dose (FIG. 12B) dependent inhibition of enzyme activity
same,inhibition of TrxR (lipoate reduction),"[3]; A549, low concentrations (0.1-0.6 μM), 6 h",inhibition of TrxR was apparent
same,subcellular loci of ROS accentuation,A549 cancer cells,ROS accentuation is arising from mitochondria
same,toxic effect relative to vehicle,zebrafish embryos/larvae; 0.5 μM,no observable toxic effect
same,lethality,zebrafish embryos/larvae; concentrations above 1 μM,100%
same,LD50,zebrafish embryos/larvae; zebrafish embryos/larvae,0.75 µM

# Reference: patent US11332483B2, “Naphthoquinone containing gold carbene complexes and methods of uses thereof” (BOARD OF REGENTS, THE UNIVERSITY OF TEXAS SYSTEM, priority 2017, dated 2022)
